The nature of test [1]: Inhibitory (passive) avoidance (IA) test of learning/memory. The test is classed as in vivo. The text has this: The inhibitory (or sometimes called passive) avoidance (IA) test is a well accepted animal model of learning/memory used to assess the activity of novel cholinergic agonists to enhance cognitive function (Wanibuchi et al., Eur. J. Pharmacol., 1990, 187:479). Animals are placed in the illuminated (12 X 14 X 11 cm) portion of a two-chambered box, from which they enter through a guillotine door to the larger (24 X 13.5 X 12 cm) dark compartment of the box. Entry to the dark compartment is accompanied by a mild (0.5 mA), brief (2 seconds) footshock. Initial latencies to cross are recorded, with an imposed 60 second ceiling. Following a 72 hour retention interval, animals are returned to the illuminated chamber, and latency to return to the dark compartment is again recorded, with a ceiling of 180 seconds. No footshock is administered on the test day.
Twelve animals were used in each group.

In the next test the test system is CD1 mice. The experiment in a line: Mouse elevated plus-maze (EPM) test of anxiolytic activity. The test is classed as in vivo. The text has this:
The mouse elevated plus-maze is a conflict test that probes anxiolytic activity of test compounds (Lister, Psychopharmacology, 1987, 92:180). It is based on the fact that exposure of mice to an elevated open arm leads to an avoidance response considerably stronger than that evoked by exposure to an enclosed arm.
The apparatus required to perform this test is made of plywood and consists of two open arms (17 X 8 cm) and two enclosed arms (17 X 8 X 15 cm) extending from a central platform (8 X 8 cm). It is mounted on a plywood base rising 39 cm above the floor. Mice are released on the central platform and the time spent in the open and enclosed arms is recorded during a 5 minute test period. The test compounds were administered to CD1 mice 15 minutes before the test. […]

In test [2] the test system is cholinergic channel receptors in PC12 cells. Put plainly: Whole-cell patch-clamp measurement of cholinergic channel activation in NGF-differentiated PC12 cells. Format: cell-based, rat. The note with it: for CURRENT AT PEAK: holding potential -60 mV. An excerpt:
B. Protocols for the Determination of Cholinergic Channel Activation in PC12 Cells.
The cholinergic channel activator properties of Example 9 were investigated in PC12 cells using the whole-cell patch-clamp approach to measure current flow through ligand-gated membrane channels. […]
PC12 cells are a rat pheochromocytoma cell line that, upon treatment with nerve growth factor (NGF) differentiate into a neuronal phenotype and express nicotinic cholinergic channels (Greene & Tischier, Proceedings of the National Academy of Sciences of the United States of America, 73: 2424-2428, 1976; Dichter et al., Nature, 268: 501-504, 1977). Prominent neuronal cholinergic channel subunits in these cells are α3, α5, β2, β3 and β4 (Rogers et al., Journal of Neuroscience, 12: 4611-4623, 1992).
PC12 cells were obtained initially from ATCC and, using standard techniques were maintained in DMEM containing 10% heat-inactivated fetal calf serum and 5% heat-inactivated horse serum (37°C, 95% 02 & 5% CO2). Electrophysiologic recordings were obtained from differentiated (neurite-bearing) cells after 4-7 days exposure to NGF. For this purpose, the undifferentiated cells were first plated onto polylysine-coated 12 mm round glass coverslips in 60x15 mm plastic Petri dishes. After 20 minutes, differentiating medium was added (DMEM containing 100 ng/ml nerve growth factor, 5% heat-inactivated fetal calf serum and 2.5% heat-inactivated horse serum) and the cells were refed with this medium every 3 days.
The whole-cell patch-clamp technique was used to record voltage-activated currents and ligand-gated currents activated by substances applied through the U-tube flow-reversal technique (Fenwick et al., The Journal of Physiology (London) 331: 577-597, 1982). A coverslip bearing the cells was transferred from culture dish to the recording chamber (350 µL volume) and superfused (1 ml/min) at room temperature with an extracellular solution containing 150 mM NaCl, 2.8 mM KCI, 2.0 mM CaCl2, 1.0 mM MgCl2, ≥ 10 mM dextrose and 10 mM Na-HEPES buffer (7.3 pH, 325 mOsm). The intracellular (recording pipette) solution consisted of 140 mM KCl, 1.0 mM CaCl2, 2.0 mM MgCl2, 11 mM K-EGTA, and 10 mM K-HEPES buffer (7.3 pH, 315 mOsm). Osmolarities were adjusted using dextrose such that the extracellular solution was 10 mOsm hypertonic compared to the intracellular solution. Voltage-gated inward (sodium) and outward (potassium) currents were monitored throughout the experiment to determine establishment and maintenance of the whole-cell recording configuration.
The ligand was applied at least twice at each concentration in every cell, and applications were separated by ≥ 3 minutes to allow for recovery from desensitization, washout of the bathing solution, and re-equilibration of the U-tube. Antagonists were applied to the bathing solution through superfusion for 5-10 minutes prior to application of both antagonist and agonist through the U-tube flow reversal.
In general terms: The patch-clamp technique gives a direct electrical read-out from membranes.

Where [3] appears, read: level of improvement in retention of the avoidance response, dose or dose range in brackets, IP 15 minutes before training, 12 animals per group.
[4] abbreviates: level of increase in time spent in the open arms, dose or dose range in brackets, given 15 minutes before 5 minute test.

The text below walks through data of patent publication EP0663912B1, “HETEROCYCLIC ETHER COMPOUNDS THAT ENHANCE COGNITIVE FUNCTION” (ABBOTT LABORATORIES, priority 1992, dated 1994).

The EC50 is the midpoint of the concentration-response curve.

“And” between values parts separate entries of the source, which are not always exact repeats. Equal entries are not always repeated. Structures can show the parent of a compound that is named as a salt.

On to `Cc1ncccc1OC[C@@H]1CCN1.Cl.Cl` [Example 29, 2-Methyl-3-(2-(S)-azetidinylmethyloxy)pyridine dihydrochloride], for which the IA result in test [1] (setting [3]) is “significantly Inhibits [19]”. Further, in the test with CD1 mice (setting [4]), the EPM result is “significant [0.62, 1.9]”.
For the molecule `Cl.c1cncc(OC[C@@H]2CCN2)c1` [Example 9, 3-(2-(S)-azetidinylmethyloxy)pyridine hydrochloride], in test [2] (10 µM Example 9, individual PC12 cells A-E, hydrochloride), the “CURRENT AT PEAK” value was 165 pA and 173 pA and 484 pA and 283 pA and 702 pA. The “CURRENT AT PEAK, MEAN±S.E.M.” value in test [2] (10 µM Example 9, n=5 PC12 cells) worked out at 361 ±103 pA. The “RESPONSE RATIO Example 9 /(-)-NICOTINE” value in test [2] (10 µM Example 9 versus 50 µM (-)-nicotine in the same cell, individual PC12 cells A-E, hydrochloride, 10 µM) is 203% and 161% and 171% and 173% and 130%. For the same molecule, in test [2] (10 µM Example 9 versus 50 µM (-)-nicotine in the same cell, n=5), the “RESPONSE RATIO Example 9 /(-)-NICOTINE, MEAN±S.E.M.” value was found to be 168 ± 12%. The IA result in test [1] (setting [3]) was “NE [0.0019- 0.062]”. Moreover, in the test with CD1 mice (setting [4]), the EPM entry was “significant [0.0062]”.
For `CN1CC[C@H]1COc1cccnc1.Cl` [Example 10, 3-(1-Methyl-2-(S)-azetidinylmethyloxy)pyridine hydrochloride], the IA entry in test [1] (setting [3]) is “marginal [0.62]”. The EPM result in the test on CD1 mice (setting [4]) was “significant [0.19]”.
As for `CN1CCC[C@H]1COc1cccnc1.O=C(O)/C=C/C(=O)O` [Example 4, 3-(1-Methyl-2-(S)-pyrrolidinylmethyloxy)pyridine fumarate], in test [1] (setting [3]), the IA result was “significant [0.019]”. Also, the EPM entry in the test on CD1 mice (setting [4]) is “NE [0.019-0.62]”.
Consider `Cc1ccc(OC[C@@H]2CCCN2C)cn1.Cl.Cl` [Example 19, 6-Methyl-3-(1-methyl-2-(S)-pyrrolidinylmethyloxy)pyridine dihydrochloride], for which the IA entry in test [1] (setting [3]) is “NE [0.019- 0.62]”. Besides, the EPM entry in the test with CD1 mice (setting [4]) was “NE [0.019-62]”.
As for `Cc1ncccc1OC[C@@H]1CCCN1.Cl.Cl` [Example 17, 2-Methyl-3-(2-(S)-pyrrolidinylmethyloxy)pyridine dihydrochloride], the IA entry in test [1] (setting [3]) was “significant [0.062, 0.62, 1.9]”. For the same molecule, in the test with CD1 mice (setting [4]), the EPM result is “significant [1.9]”.
Turning to `CN1CC[C@H]1COc1cnccn1.Cl` [Example 8, 2-(1-Methyl-2-(S)-azetidinylmethyloxy)pyrazine hydrochloride], in test [1] (setting [3]), the IA result was “NE [0.062- 1.9]”. In addition, the EPM entry with CD1 mice (setting [4]) was “NE [0.062- 1.9]”.
For `Cl.Cl.Clc1cncc(OC[C@@H]2CCCN2)c1` [Example 15, 5-Chloro-3-(2-(S)-pyrrolidinylmethyloxy)pyridine dihydrochloride], the IA result in test [1] (setting [3]) is “significantly inhibits [0.062]”. In addition, the EPM result in the test with CD1 mice (setting [4]) was “significant [0.062- 0.19]”.
Consider `Cc1ccc(OC[C@@H]2CCCN2)cn1.Cl.Cl` [Example 18, 6-Methyl-3-(2-(S)-pyrrolidinylmethyloxy)pyridine dihydrochloride], for which, in test [1] (setting [3]), the IA entry is “NE [0.019- 0.62]”. In addition, in the test with CD1 mice (setting [4]), the EPM result was “significant [0.062- 0.19]”.
`CN1CCCC1c1cccnc1` (single isomer, unassigned; (-)) [(-)-nicotine, reference compound]: the “CURRENT AT PEAK” value in test [2] (50 µM (-)-nicotine, individual PC12 cells A-E) was 81 pA and 108 pA and 163 pA and 539 pA. Also, in test [2] (50 µM (-)-nicotine, n=5 PC12 cells), the “CURRENT AT PEAK, MEAN±S.E.M.” value is on record as 235 ± 84 pA. The EC50 in test [2] (PC12 cells current response) was 52 µM. Also, the IA entry in test [1] (in vivo, ip) was “significant [0.19-0.62]”. Further, in the test on CD1 mice (mouse, in vivo), the EPM result was “significant [0.62-1.9]” and the “time spent by the mice in the open arms of the maze” value was “significant increase”.
Consider `c1cncc(OC[C@@H]2CCCN2)c1` [Example 14, 3-(2-(S)-pyrrolidinylmethyloxy)pyridine furmarate], for which, in test [1] (setting [3]), the IA result is “NE [0.019- 0.62]”. Besides, the EPM entry in the test on CD1 mice (setting [4]) is “marginal [0.019]”.
Consider `CNC1(C)C2CCC(C2)C1(C)C` (centres unmarked) [Mecamylamine, reference compound], for which the “inhibition of the responses to Example 9” value in test [2] (Mecamylamine 10 µM against Example 9 10 µM, n=4) was ≥ 80%.
Consider `CN1CCC[C@H]1COc1cnccn1.O=C(O)/C=C/C(=O)O` [Example 3, 2-(1-Methyl-2-(S)-pyrrolidinylmethyloxy)pyrazine fumarate], for which the IA entry in test [1] (setting [3]) is “NE [0.062-1.9]”. Also, the EPM result in the test with CD1 mice (setting [4]) is “NE [0.019-0.62]”.
For `CN1CCC[C@H]1COc1cncc(Cl)c1.Cl.Cl` [Example 16, 5-Chloro-3-(1-methyl-2-(S)-pyrrolidinylmethyloxy)pyridine dihydrochloride], in that order: “significant [0.019]” and “NE [0.019- 0.62]”.
For the molecule `c1csc(OCC23CCCN2CCC3)n1` [Example 34, 2-(1-(8-pyrrolizidinyl)methyloxy)thiazole hydrochloride salt], in test [1] (setting [3]), the IA result is “NE [0.062-1.9]”. In addition, the EPM result in the test on CD1 mice (setting [4]) is “marginal [0.62]”.
For `CC1CC[C@@H](COc2cccnc2)N1C.Cl.Cl` (stereo partly drawn) [Example 22, 3-(1-Methyl-5-methyl-2-(S)-pyrrolidinylmethyloxy)pyridine dihydrochloride], in that order: “NE [0.062- 1.9]” and “NE [0.062-1.9]”.
On to `Cl.c1cnc(OC[C@@H]2CCN2)cn1` [Example 7, 2-(2-(S)-azetidinylmethyloxy)pyrazine hydrochloride], for which the IA result in test [1] (setting [3]) is “marginal”. The EPM result in the test on CD1 mice (setting [4]) was “NE [0.019-0.62]”.
